Experimental data reported in PMC5218480 (PLoS ONE, 2017).

System: MV-4-11 cells
Test: Gene expression microarray analysis (Affymetrix PrimeView) and GSEA
Type: cell-based, human
Parameters: RFU PODN (11730768_x_at) / Fold change /veh PODN (11730768_x_at) / RFU LINC00158 (11744669_a_at) / Fold change /veh LINC00158 (11744669_a_at) / RFU DUSP10 (11751237_a_at) / Fold change /veh DUSP10 (11751237_a_at) / RFU ID3 (11757404_x_at) / Fold change /veh ID3 (11757404_x_at) / RFU PLEKHG5 (11737974_s_at) / Fold change /veh PLEKHG5 (11737974_s_at) / RFU LRRC4B (11730491_at) / Fold change /veh LRRC4B (11730491_at) / RFU GIMAP4 (11747438_a_at) / Fold change /veh GIMAP4 (11747438_a_at) / RFU KRT8 (11758183_x_at) / Fold change /veh KRT8 (11758183_x_at) / RFU CNN1 (11734310_a_at) / Fold change /veh CNN1 (11734310_a_at) / RFU VPS37D (11726825_at) / Fold change /veh VPS37D (11726825_at) / RFU C10orf10 (11716522_x_at) / Fold change /veh C10orf10 (11716522_x_at) / RFU KIR2DL2 /// KIR2DL4 /// KIR2DL5A /// KIR2DL5B /// KIR2DS1 /// KIR2DS2 /// KIR2DS3 /// KIR2DS4 /// KIR3DL3 /// KIR3DL3 /// KIR3DS1 (11738374_at) / Fold change /veh KIR2DL2 /// KIR2DL4 /// KIR2DL5A /// KIR2DL5B /// KIR2DS1 /// KIR2DS2 /// KIR2DS3 /// KIR2DS4 /// KIR3DL3 /// KIR3DL3 /// KIR3DS1 (11738374_at) / RFU C1QL1 (11718748_at) / Fold change /veh C1QL1 (11718748_at) / RFU TMPRSS4 (11747572_a_at) / Fold change /veh TMPRSS4 (11747572_a_at) / RFU HAMP (11756126_x_at) / Fold change /veh HAMP (11756126_x_at) / RFU RNFT2 (11725882_a_at) / Fold change /veh RNFT2 (11725882_a_at) / RFU NR4A2 (11747474_a_at) / Fold change /veh NR4A2 (11747474_a_at) / RFU ABCC12 (11746883_a_at) / Fold change /veh ABCC12 (11746883_a_at) / RFU TMEM136 (11760407_x_at) / Fold change /veh TMEM136 (11760407_x_at) / RFU CLDN22 /// WWC2 (11732394_at) / Fold change /veh CLDN22 /// WWC2 (11732394_at) / RFU HLA-DPB1 (11760878_x_at) / Fold change /veh HLA-DPB1 (11760878_x_at) / RFU SPINT1 (11716480_a_at) / Fold change /veh SPINT1 (11716480_a_at) / RFU GAP43 (11754022_s_at) / Fold change /veh GAP43 (11754022_s_at) / RFU A4GNT (11735810_at) / Fold change /veh A4GNT (11735810_at) / RFU PRB3 (11715151_x_at) / Fold change /veh PRB3 (11715151_x_at) / RFU TUBB4B (11761932_at) / Fold change /veh TUBB4B (11761932_at) / RFU CAPN14 (11732068_a_at) / Fold change /veh CAPN14 (11732068_a_at) / RFU TMCC2 (11721928_a_at) / Fold change /veh TMCC2 (11721928_a_at) / RFU IRGQ (11745062_a_at) / Fold change /veh IRGQ (11745062_a_at) / RFU FAM174B (11720279_a_at) / Fold change /veh FAM174B (11720279_a_at) / RFU TMPRSS4 (11748680_a_at) / Fold change /veh TMPRSS4 (11748680_a_at) / RFU FAM212B (11763350_a_at) / Fold change /veh FAM212B (11763350_a_at) / RFU PLEKHG5 (11743358_a_at) / Fold change /veh PLEKHG5 (11743358_a_at) / RFU ZSCAN30 (11745921_a_at) / Fold change /veh ZSCAN30 (11745921_a_at) / RFU CMKLR1 (11741424_a_at) / Fold change /veh CMKLR1 (11741424_a_at) / RFU LOC101060620 /// MAPK8IP1 (11723275_at) / Fold change /veh LOC101060620 /// MAPK8IP1 (11723275_at) / RFU SPTSSB (11747773_x_at) / Fold change /veh SPTSSB (11747773_x_at) / RFU PRSS12 (11739890_at) / Fold change /veh PRSS12 (11739890_at) / RFU BIN1 (11741810_x_at) / Fold change /veh BIN1 (11741810_x_at) / RFU WNT11 (11732464_a_at) / Fold change /veh WNT11 (11732464_a_at) / RFU C10orf10 (11716521_a_at) / Fold change /veh C10orf10 (11716521_a_at) / RFU C5orf56 (11738089_at) / Fold change /veh C5orf56 (11738089_at) / RFU CYB561 (11721691_x_at) / Fold change /veh CYB561 (11721691_x_at) / RFU ANKRD19P (11752326_a_at) / Fold change /veh ANKRD19P (11752326_a_at) / RFU OR2T12 /// OR2T33 /// OR2T8 (11738714_s_at) / Fold change /veh OR2T12 /// OR2T33 /// OR2T8 (11738714_s_at) / RFU VCAN (11748164_a_at) / Fold change /veh VCAN (11748164_a_at) / RFU JSRP1 (11732532_at) / Fold change /veh JSRP1 (11732532_at) / RFU KRTAP10-11 (11738290_x_at) / Fold change /veh KRTAP10-11 (11738290_x_at) / RFU MYO3A (11730013_a_at) / Fold change /veh MYO3A (11730013_a_at) / RFU EBF3 (11725865_a_at) / Fold change /veh EBF3 (11725865_a_at) / RFU CAMK2N1 (11719241_x_at) / Fold change /veh CAMK2N1 (11719241_x_at) / RFU C5orf56 (11738088_a_at) / Fold change /veh C5orf56 (11738088_a_at) / RFU OLFML3 (11715873_a_at) / Fold change /veh OLFML3 (11715873_a_at) / RFU LOC100653217 /// NTM (11731650_a_at) / Fold change /veh LOC100653217 /// NTM (11731650_a_at) / RFU MAPK11 (11762145_a_at) / Fold change /veh MAPK11 (11762145_a_at) / RFU FIZ1 (11724087_x_at) / Fold change /veh FIZ1 (11724087_x_at) / RFU OASL (11726364_x_at) / Fold change /veh OASL (11726364_x_at) / RFU SOX15 (11748057_x_at) / Fold change /veh SOX15 (11748057_x_at) / RFU CD79A (11719716_a_at) / Fold change /veh CD79A (11719716_a_at) / RFU HIST1H1D (11736915_at) / Fold change /veh HIST1H1D (11736915_at) / RFU CASKIN2 (11723855_a_at) / Fold change /veh CASKIN2 (11723855_a_at) / RFU LOC730098 (11760151_x_at) / Fold change /veh LOC730098 (11760151_x_at) / RFU OR4N2 (11742367_at) / Fold change /veh OR4N2 (11742367_at) / RFU PRRT2 (11749266_a_at) / Fold change /veh PRRT2 (11749266_a_at) / RFU SNX32 (11753110_a_at) / Fold change /veh SNX32 (11753110_a_at) / RFU CDHR5 (11726645_a_at) / Fold change /veh CDHR5 (11726645_a_at) / RFU RCAN1 (11760418_a_at) / Fold change /veh RCAN1 (11760418_a_at) / RFU FAM167A (11723789_a_at) / Fold change /veh FAM167A (11723789_a_at) / RFU FAM26E (11764081_at) / Fold change /veh FAM26E (11764081_at) / RFU ISYNA1 (11749810_s_at) / Fold change /veh ISYNA1 (11749810_s_at) / RFU ACY1 (11761880_at) / Fold change /veh ACY1 (11761880_at) / RFU 11764098_at / Fold change /veh 11764098_at / RFU SAMD14 (11745864_x_at) / Fold change /veh SAMD14 (11745864_x_at) / RFU NPB (11741838_a_at) / Fold change /veh NPB (11741838_a_at) / RFU TMPRSS6 (11731388_a_at) / Fold change /veh TMPRSS6 (11731388_a_at) / RFU KRTAP10-2 (11738614_at) / Fold change /veh KRTAP10-2 (11738614_at) / RFU ARHGAP8 /// PRR5-ARHGAP8 (11727945_x_at) / Fold change /veh ARHGAP8 /// PRR5-ARHGAP8 (11727945_x_at) / RFU KRTAP5-7 /// NADSYN1 (11734609_at) / Fold change /veh KRTAP5-7 /// NADSYN1 (11734609_at) / RFU RASL12 (11751679_a_at) / Fold change /veh RASL12 (11751679_a_at) / RFU CDKN2B (11736163_a_at) / Fold change /veh CDKN2B (11736163_a_at) / RFU PRF1 (11729649_at) / Fold change /veh PRF1 (11729649_at) / RFU, ZNF638 /// ZNF638-IT1 / Fold change vs veh, ZNF638 /// ZNF638-IT1 / RFU, PANK3 / Fold change vs veh, PANK3 / RFU, SH3YL1 / Fold change vs veh, SH3YL1 / RFU, ZEB2 / Fold change vs veh, ZEB2 / RFU, NRIP1 / Fold change vs veh, NRIP1 / RFU, PTTG1IP / Fold change vs veh, PTTG1IP / RFU, CAPN2 / Fold change vs veh, CAPN2 / RFU, MED14 / Fold change vs veh, MED14 / RFU, SNORA58 / Fold change vs veh, SNORA58 / RFU, C1orf63 / Fold change vs veh, C1orf63 / RFU, LRRFIP1 / Fold change vs veh, LRRFIP1 / RFU, NDUFAF7 / Fold change vs veh, NDUFAF7 / RFU, SLC12A2 / Fold change vs veh, SLC12A2 / RFU, IBTK / Fold change vs veh, IBTK / RFU, ESF1 / Fold change vs veh, ESF1 / Fold change vs veh, TMEM50B / RFU, TAOK1 / Fold change vs veh, TAOK1 / RFU, ACBD3 / Fold change vs veh, ACBD3 / RFU, TMA16 / Fold change vs veh, TMA16 / RFU, RWDD3 / Fold change vs veh, RWDD3 / RFU, BCAT1 / Fold change vs veh, BCAT1 / RFU, EDEM3 / Fold change vs veh, EDEM3 / RFU, TMEM33 / Fold change vs veh, TMEM33 / RFU, WDR75 / Fold change vs veh, WDR75 / RFU, AHCTF1 / Fold change vs veh, AHCTF1 / RFU, TFRC / Fold change vs veh, TFRC / RFU, ZDHHC17 / Fold change vs veh, ZDHHC17 / RFU, NOM1 / Fold change vs veh, NOM1 / RFU, ARL8B / Fold change vs veh, ARL8B / RFU, ZBTB11 / Fold change vs veh, ZBTB11 / RFU, TAMM41 / Fold change vs veh, TAMM41 / RFU, KIAA1704 /// LOC100996395 / Fold change vs veh, KIAA1704 /// LOC100996395 / RFU, ING1 / Fold change vs veh, ING1 / RFU, TRMT61B / Fold change vs veh, TRMT61B / RFU, FUBP3 / Fold change vs veh, FUBP3 / RFU, TP53 / Fold change vs veh, TP53 / RFU, TNKS2 / Fold change vs veh, TNKS2 / RFU, ZFP14 / Fold change vs veh, ZFP14 / RFU, ACTR2 / Fold change vs veh, ACTR2 / RFU, PPP3R1 / Fold change vs veh, PPP3R1 / RFU, PIK3R1 / Fold change vs veh, PIK3R1 / RFU, HNRNPA1 / Fold change vs veh, HNRNPA1 / RFU, RNF170 / Fold change vs veh, RNF170 / RFU, ZNF28 / Fold change vs veh, ZNF28 / RFU, RNGTT / Fold change vs veh, RNGTT / RFU, OGT / Fold change vs veh, OGT / RFU, BRD1 / Fold change vs veh, BRD1 / RFU, MARS / Fold change vs veh, MARS / RFU, ZNF655 / Fold change vs veh, ZNF655 / RFU, FAHD1 / Fold change vs veh, FAHD1 / RFU, BDP1 / Fold change vs veh, BDP1 / RFU, LRRCC1 / Fold change vs veh, LRRCC1 / RFU, ARID1A / Fold change vs veh, ARID1A / RFU, ZNF146 / Fold change vs veh, ZNF146 / RFU, ZNF330 / Fold change vs veh, ZNF330 / RFU, GPN3 / Fold change vs veh, GPN3 / RFU, C9orf123 / Fold change vs veh, C9orf123 / RFU, N4BP2L2 / Fold change vs veh, N4BP2L2 / RFU, ARFIP1 / Fold change vs veh, ARFIP1 / RFU, FAM179B / Fold change vs veh, FAM179B / RFU, BCL10 / Fold change vs veh, BCL10 / RFU, UHRF1BP1L / Fold change vs veh, UHRF1BP1L / RFU, BET1 / Fold change vs veh, BET1 / RFU, CNOT2 / Fold change vs veh, CNOT2 / RFU, ZNF268 / Fold change vs veh, ZNF268 / Fold change vs veh, ZNF507 / RFU, DGCR2 / Fold change vs veh, DGCR2 / RFU, WDSUB1 / Fold change vs veh, WDSUB1 / Fold change vs veh, HSP90B1 /// MIR3652 / RFU, ADSS / Fold change vs veh, ADSS / RFU, GK / Fold change vs veh, GK / RFU, ZNF148 / Fold change vs veh, ZNF148 / RFU, TAF9 / Fold change vs veh, TAF9 / RFU, SLC1A5 / Fold change vs veh, SLC1A5 / RFU, SLMO2 / Fold change vs veh, SLMO2 / RFU, ABCC4 / Fold change vs veh, ABCC4 / RFU, LOC101060439 /// RAP1B / Fold change vs veh, LOC101060439 /// RAP1B / RFU, RFX7 / Fold change vs veh, RFX7 / RFU, GTPBP10 / Fold change vs veh, GTPBP10 / RFU, CNEP1R1 / Fold change vs veh, CNEP1R1 / RFU, BIVM-ERCC5 /// ERCC5 / Fold change vs veh, BIVM-ERCC5 /// ERCC5 / RFU, ILF3 / Fold change vs veh, ILF3 / RFU 11762660_at / Fold change /veh 11762660_at / RFU VCAN (11757783_s_at) / Fold change /veh VCAN (11757783_s_at) / RFU DDX43 (11728927_at) / Fold change /veh DDX43 (11728927_at) / RFU KRT8 (11758188_x_at) / Fold change /veh KRT8 (11758188_x_at) / RFU NKD1 (11759106_at) / Fold change /veh NKD1 (11759106_at) / RFU SRD5A1 (11742802_a_at) / Fold change /veh SRD5A1 (11742802_a_at) / RFU TPSAB1 /// TPSB2 (11721975_s_at) / Fold change /veh TPSAB1 /// TPSB2 (11721975_s_at) / RFU GSTM3 (11746129_a_at) / Fold change /veh GSTM3 (11746129_a_at) / RFU IL23R (11737362_x_at) / Fold change /veh IL23R (11737362_x_at) / RFU TMEM51 (11727254_a_at) / Fold change /veh TMEM51 (11727254_a_at) / RFU PIWIL2 (11732686_x_at) / Fold change /veh PIWIL2 (11732686_x_at) / RFU ORM1 (11744905_x_at) / Fold change /veh ORM1 (11744905_x_at) / RFU CCDC152 (11743942_at) / Fold change /veh CCDC152 (11743942_at) / RFU ECM1 (11717891_a_at) / Fold change /veh ECM1 (11717891_a_at) / RFU IL23R (11748794_a_at) / Fold change /veh IL23R (11748794_a_at) / RFU TNFAIP8L3 (11732012_x_at) / Fold change /veh TNFAIP8L3 (11732012_x_at) / RFU MBOAT4 (11741988_at) / Fold change /veh MBOAT4 (11741988_at) / RFU 11764193_at / Fold change /veh 11764193_at / RFU TMEM53 (11763286_at) / Fold change /veh TMEM53 (11763286_at) / RFU MAGEB2 (11727129_at) / Fold change /veh MAGEB2 (11727129_at) / RFU TMEM200A (11744735_a_at) / Fold change /veh TMEM200A (11744735_a_at) / RFU CCDC152 (11751479_a_at) / Fold change /veh CCDC152 (11751479_a_at) / RFU FAM211A (11726209_a_at) / Fold change /veh FAM211A (11726209_a_at) / RFU RGS16 (11746705_a_at) / Fold change /veh RGS16 (11746705_a_at) / RFU VCAN (11755009_s_at) / Fold change /veh VCAN (11755009_s_at) / RFU RHOB (11743442_s_at) / Fold change /veh RHOB (11743442_s_at) / RFU RGS16 (11720943_a_at) / Fold change /veh RGS16 (11720943_a_at) / RFU RGS16 (11720944_at) / Fold change /veh RGS16 (11720944_at) / RFU, VPS4B / Fold change vs veh, VPS4B / RFU, CREB1 / Fold change vs veh, CREB1 / RFU, DNAJC13 / Fold change vs veh, DNAJC13 / RFU, GNAQ / Fold change vs veh, GNAQ / RFU, CDK5R1 / Fold change vs veh, CDK5R1 / RFU, ZRANB3 / Fold change vs veh, ZRANB3 / RFU, CUL4A / Fold change vs veh, CUL4A / RFU, CCNY / Fold change vs veh, CCNY / RFU, UFL1 / Fold change vs veh, UFL1 / RFU, COG3 / Fold change vs veh, COG3 / RFU, DIAPH2 / Fold change vs veh, DIAPH2 / RFU, SKA2 / Fold change vs veh, SKA2 / RFU, AFF3 / Fold change vs veh, AFF3 / RFU, LMF1 / Fold change vs veh, LMF1 / RFU, IPO11 / Fold change vs veh, IPO11 / RFU, DFFB / Fold change vs veh, DFFB / RFU, FOXP1 / Fold change vs veh, FOXP1 / RFU, CARD8 / Fold change vs veh, CARD8 / RFU, STRN3 / Fold change vs veh, STRN3 / RFU, ADK / Fold change vs veh, ADK / RFU, RASSF2 / Fold change vs veh, RASSF2 / RFU, WIPF1 / Fold change vs veh, WIPF1 / RFU, LARP1B / Fold change vs veh, LARP1B / RFU, RASA1 / Fold change vs veh, RASA1 / RFU, RB1 / Fold change vs veh, RB1 / RFU, PPFIA1 / Fold change vs veh, PPFIA1 / RFU, MAT2A / Fold change vs veh, MAT2A / RFU, CCT5 / Fold change vs veh, CCT5 / RFU, WDR92 / Fold change vs veh, WDR92 / RFU, CUX1 / Fold change vs veh, CUX1 / RFU, TTC7A / Fold change vs veh, TTC7A / RFU, TMEM135 / Fold change vs veh, TMEM135 / RFU, DEPTOR / Fold change vs veh, DEPTOR / RFU, CPM / Fold change vs veh, CPM / RFU, DNAJB6 / Fold change vs veh, DNAJB6 / RFU, CACNA2D3 / Fold change vs veh, CACNA2D3 / RFU, DTX4 / Fold change vs veh, DTX4 / RFU, TFCP2 / Fold change vs veh, TFCP2 / RFU, GMCL1 /// GMCL1P1 / Fold change vs veh, GMCL1 /// GMCL1P1 / RFU, AEBP2 / Fold change vs veh, AEBP2 / RFU, SNHG1 /// SNORD22 /// SNORD25 /// SNORD26 /// SNORD27 /// SNORD28 /// SNORD29 /// SNORD31 / Fold change vs veh, SNHG1 /// SNORD22 /// SNORD25 /// SNORD26 /// SNORD27 /// SNORD28 /// SNORD29 /// SNORD31 / Fold change (Aza/veh), C12orf56 (ProbeSet 11735607_a_at) / Fold change (ACY-1035/veh), C12orf56 (ProbeSet 11735607_a_at) / Fold change (Aza/veh), FGFR1OP (ProbeSet 11751329_s_at) / Fold change (ACY-1035/veh), FGFR1OP (ProbeSet 11751329_s_at) / Fold change (Aza/veh), VPS36 (ProbeSet 11739960_a_at) / Fold change (ACY-1035/veh), VPS36 (ProbeSet 11739960_a_at) / RFU SYPL1 (11715823_x_at) / Fold change /veh SYPL1 (11715823_x_at) / RFU IGFBP7 (11715501_s_at) / Fold change /veh IGFBP7 (11715501_s_at) / RFU REEP3 (11722064_at) / Fold change /veh REEP3 (11722064_at) / RFU IGLL1 (11728026_x_at) / Fold change /veh IGLL1 (11728026_x_at): dose or concentration left out as unconfirmed
Settings: MV-4-11 cells, 48 hours

SMILES: Nc1ccc(-c2cccs2)cc1NC(=O)c1ccc2c(c1)cc(C1CC1)n2CCN1CCOCC1 [ACY-1035]
- Fold change /veh PRSS12 (11739890_at): 1.14
